IC50 data for one compound are collected here from BindingDB's records for doi:10.1021/acs.jmedchem.5b01091 (University of Manchester, 2016).

The nature of this assay: Inhibition of NLRP3 in mouse J774 macrophages assessed as reduction in Bacillus anthracis lethal toxin induced cell death.

The IC50 is the concentration needed to halve the response being measured.

As to `CC1(C)C(=O)C=C[C@]2(C)[C@H]3CC[C@@]4(C)[C@H](c5ccoc5)OC(=O)[C@H]5O[C@]54[C@]3(C)C=C[C@@H]12`, the IC50 is 5 µM.
